Measured values: patent US20050192262A1, “Treatment of tumours” (priority 2001, published 2005)

Key:
DU-145 [1] = experiment: Trypan blue exclusion trial, number of viable and dead cells; type: cell-based, human; settings: 96 hours; for DU-145 mean % viable / DU-145 mean Dead cells / DU-145 mean Tot. cells / DU-145 mean Viable cells: 100 nM; for DU-145 mean Dead cells / DU-145 mean Tot. cells / DU-145 mean Viable cells: mean (range)
Protocol: (§1) Human prostatic cancer cell lines, PC-3 and DU-145, were used. Frozen cell lines were established in culture. DU-145, which was received as a tumour piece, was first disintegrated in a sterile Petri dish, using a pair of scissors. The disintegrated tumour was transferred to a […] cell-culture flask containing medium. For medium, Ham's F 10 was used for PC-3 and RPMI 1640 for DU-145.
(§2) FBS 10%, 0.2% NaHCO3 (7.5%), 2 mM L-glutamine (200 mM) and 0.005 mg/ml gentamycin (5 mg/ml) were added to culturing media for both cell lines.
(§3) Cells were grown in […] cell culture flasks until nearly confluent and culture medium was changed twice weekly. A solution of 17α-AED, 17-β-AED as well as a mixture of both in equal parts of DMSO and ethanol diluted in culture medium, not allowing the concentration of DMSO in culture-flasks to exceed 0.15%, was added respectively.
(§4) The concentration of AED in each culture flask was 100 nM. Controls were exposed to the same concentration of DMSO and ethanol in culture medium.
(§5) Exposure was maintained for 96 hours and cells in culture flasks were then treated with 5 ml of trypsin (0.25%) for PC-3 and trypsin and 3 ml of Versene (0.2 mM) for DU-145. Cells were then mechanically loosened, using a glass spatula. 100 μL aliquots were removed for Trypan blue exclusion trial. 200 μL aliquots were removed for cytospin preparations. The remaining 700 μL samples were then centrifuged for 5 minutes at 510×g at 4° C. Supernatant was removed and cells were resuspended in medium in 1 ml of insect cell lysis buffer (Pharmingen # 21425A) and incubated for 30 minutes on ice. The cell lysates were then stored at −70° C. until analysis.
(§6) Trypan Blue Exclusion Trial 100 μL aliquots of the initial cell suspension in PBS were used to determine the viability of cells collected by means of the trypan blue exclusion assay. 10 μL of the cell suspensions were mixed with 10 μL trypan blue solution (Sigma Chemical Co. # T8154) and left to sit for 3 minutes. The numbers of viable and dead cells were counted in a hemocytometer.

PC-3 [2] = experiment: as above; type: cell-based, human; settings: 96 hours; for PC-3 mean % viable / PC-3 mean Dead cells / PC-3 mean Tot. cells / PC-3 mean Viable cells: 100 nM; for PC-3 mean Dead cells / PC-3 mean Tot. cells / PC-3 mean Viable cells: mean (range); for increase in total number of cells compared to controls / proportion of viable cells: PC-3, 100 nM
Protocol: as §1, §2, §3, §4, §5, §6

DU-145 [3] = experiment: Caspase apoptosis assay (Ac-DEVD-AMC fluorescence); type: cell-based, human; settings: 96 hours; for Mean fluorescence DU-145 samples/100 cells n = 3 / Mean fluorescence DU-145 samples n = 3: 100 nM, mean (range); for Mean fluorescence DU-145 samples/100 cells n = 3: corrected for cell number
Protocol: as §5
(§7) Aliquots of a 100 μL of cell lysate were removed for the caspase assay. Each portion was mixed with 1 ml protease assay buffer and Ac-DEVD-AMC substrate (Pharmingen # 66081U) with a final concentration of 20 μM. Solutions were incubated for 60 minutes at 37° C.
(§8) To determine background fluorescence a control was prepared, containing no cell lysate but the same amounts of protease assay buffer, lysis buffer and Ac-DEVD-AMC substrate.
(§9) Fluorescence was measured using a spectrofluorometer (RF 540, Shimadzu Data Recorder DR3, Instrument AB, Lambda) at 415-450 nm with an excitation wavelength of 380 nm.

PC-3 [4] = experiment: Caspase-3 apoptosis assay (Ac-DEVD-AMC fluorescence); type: cell-based, human; settings: 96 hours; for Mean fluorescence PC-3 samples/100 cells n = 3: corrected for cell number; for Caspase 3-mediated fluorescence compared to untreated controls: PC-3, 100 nM, not corrected for cell numbers
Protocol: as §5, §7, §8, §9

PPARγ = settings: Animals I; controls set to 100; mean (range); α-AED 10 mg 96 hours, β-AED 80 mg 456 hours, α+β sequential
Protocol: (§10) Thawed rat tumours from both experiments above were homogenized in ice cold lysis-buffer. (160 mM NaCl, 10 mM HEPES, 2 mM CaCl2, 5% SDS, 0.5% Triton X-100, 100 μg/ml phenyl-metylsulfonyl fluoride, 1 μg/ml leupeptin and 2 μg/ml aprotinin), placed on ice for 15 minutes and following clarification centrifuged for 10 minutes at 13,000 g. Protein content of homogenates were determined by Lowry assay.
(§11) Protein in lysates (90 μg) were separated by electrophoresis using 8% SDS-PAGE and separated proteins were transferred onto a nitrocellulose membrane (Amersham) in trans-blot electrophoretic transfer cell (Bio-Rad Laboratories).
(§12) After washing in TTBS the blots were reincubated with horseradish peroxidase conjugated secondary antibody (anti-goat antibodies 2020, Santa Cruz) diluted 1:4000 in TTBS containing 3% (w/v) non-fat, dried milk for one hour. Blots were developed using an enhanced chemiluminescence system (ECL, Amersham) and exposed to Hyperfilm ECL (Amersham). Optical density was measured densitometrically.
All experiments were repeated twice in separate assays.

COX-2 = settings: Animals I; controls set to 100; mean (range); α-AED 10 mg 96 hours, β-AED 80 mg 456 hours, α+β sequential
Protocol: (§13) The animal experiment described above was repeated.
as §10, §11, §12
The blots were striped and rehybridized with antibodies against β-catenin (C-18, sc. 1496) and COX-2 (C-20, sc 1745) antibodies.
In the second animal experiment tumours were investigated for expression of β-catenin, COX-2 and cyclin D1 (A-12, sc. 8396).

cyclin D1 = experiment: Western blotting of Dunning AT-1 rat prostate tumours; type: in vivo; settings: Animals II; exposure 80 hours in all arms
Protocol: as §13
(§14) Group 1 received a single dose of 10 mg 17α-AED sc. near tumour.
(§15) Group 2 received a single dose of 80 mg 17β-AED in the same way.
(§16) Group 3 received a single dose of 25 mg 17α OH-pregnenolone in the same way.
(§17) Group 4 received a single dose of 7.5 mg 5-androstene-3β,7β,17α-triol.
Protein content of homogenates were determined by Lowry assay.

VEGF = experiment: Immunostaining of tumour sections against VEGF; type: in vivo, rat
Protocol: Working dilution 1:100. As negative control antibody a mouse IgG, clone DAK-GO1, kappa, ×931, Dako, was used with a working dilution of 1:50.
as §13, §14, §15, §16, §17

[5] = tested on: Dunning R 3327, AT-1, rat prostatic tumour; experiment: Tumour growth after s.c. injection near tumour; type: in vivo; settings: for tumour volumes: Animals II, single s.c. injection in the proximity of the tumour
Protocol: as §13, §14, §15, §16, §17
A fifth group served as tumour bearing controls.

Structure (SMILES)	DU-145 mean % viable (DU-145 [1]) [%]	DU-145 mean Dead cells (DU-145 [1])	DU-145 mean Tot. cells (DU-145 [1])	DU-145 mean Viable cells (DU-145 [1])	PC-3 mean % viable (PC-3 [2]) [%]	PC-3 mean Dead cells (PC-3 [2])	PC-3 mean Tot. cells (PC-3 [2])	PC-3 mean Viable cells (PC-3 [2])	increase in total number of cells compared to controls (PC-3 [2]) [%]	proportion of viable cells (PC-3 [2])	Mean fluorescence DU-145 samples/100 cells n = 3 (DU-145 [3])	Mean fluorescence DU-145 samples n = 3 (DU-145 [3])	Mean fluorescence PC-3 samples/100 cells n = 3 (PC-3 [4]; 100 nM, mean (range))	Caspase 3-mediated fluorescence compared to untreated controls (PC-3 [4])	PPARγ expression, optical density (PPARγ)	COX-2 expression, optical density (COX-2)	expression of cyclin D1 (cyclin D1)	tumour volumes [5] [%]	other results
C[C@]12CC[C@H]3[C@@H](CC=C4C[C@@H](O)CC[C@@]43C)[C@@H]1CC[C@H]2O [Compound 17α-AED, androstene-3β,17α-diol]	78.1	29(21-37)	131(122-148)	102(95-111)	71.6	23(16-32)	81(64-98)	58(49-77)	59	small decrease in proportion of viable cells	14.2((10.9-20.3)	18.4(13.2-25.2)	19.5(15.7-25.9)	essentially unaltered intensity	190(176-210)	219(192-234)	marked decrease	~150	total number of cells (DU-145 [1]; DU-145, 100 nM): significant decrease in total number of cells; caspase-3 or caspase-7 fluorescence compared to 17β-AED or controls (DU-145 [3]; DU-145, 100 nM): significant decline; expression of VEGF (immunostaining) (VEGF; Animals I, 3/4 samples): very weak
C[C@]12CC[C@H]3[C@@H](CC=C4C[C@@H](O)CC[C@@]43C)[C@@H]1CC[C@@H]2O [Compound 17β-AED, reference compound]	72.1	35(31-42)	125(109-149)	90(78-107)	73.7	17(16-18)	66(63-71)	49(46-53)	29	small decrease in proportion of viable cells	35.1(25.6-50.3)	42.9(32.0-58.8)	45.5(24.5-75.2)	approximately a doubling of fluorescence	47(40-53)	135(133-137)	did not reduce	~200	Mean fluorescence PC-3 samples n = 3 (PC-3 [4]; 100 nM, mean (range)): 29.6(17.4-48.1); staining for VEGF (VEGF; Animals II): strong staining for VEGF; antitumoural effect / tumour growth ([5]; original experiment (Animals I)): growth-stimulatory effect
